Patent US11739122B2, “Glycopeptide antibiotic compounds, methods for producing the same, and uses thereof” (Academia Sinica, priority 2019, dated 2023)
Converted amounts (≈) assume the structure as drawn.

Tests used:
Dbv27 = Dbv27 (Nonomuraea gerenzanensis, UniProt Q7WZ64); assay: ITC binding affinity; conditions: ITC versus Dbv27
Experimental: Isothermal Titration Calormetry (ITC) Analysis
A stock solution (50 mM) was prepared by dissolving r6,GlcNAc pseudoaglycone (9) in 50% DMSO. The 1 mM protein solutions of Orf2*, Orf2*T and Dbv27 were prepared in a 50 mM HEPES buffer solution at pH 8.0. The solution (50 mM HEPES, pH8.0 and 10% DMSO) that contained compound 9 (1 mM) or S-adenosylmethionine (SAM) (1 mM) in a 40 μL injection syringe was titrated into the Orf2*, Orf2*T or Dbv27 (0.1 mM) protein solution, which was placed in the sample cell of a 200 μL volume. Each titration consisted of 16 injections of a 2 μL4 s^−1 duration in an interval of 150 seconds. Data analysis was performed by software.

A. baumannii ATCC 19606 [1] = assay: In vivo efficacy, intranasal A. baumannii infection; design: species or system mice; conditions: BAL fluid, 24 hours post-inoculation; 24 and kanamycin 30, amikacin 15 mgkg^−1
Experimental: In Vivo Efficacy of r6,N-Acyl-Glc Tei Analogs
Female C57BL/6 mice (6 weeks of age; about 16-19 g, 3-5 mice per group) were intraperitoneally inoculated with 300 μL of MRSA ATCC 700787 suspension (about 10^7 CFUmL^−1). For intranasal A. baumannii (ATCC 19606) inoculation, mice were anesthetized, and inoculated intranasally with about 10^7-10^8 CFUmL^−1 A. baumannii in 50 μL of PBS. Treatments were started 1 hour after the bacterial challenge. The dose administration to mice was set as follows: teicoplanin (1) or r6,C8-Tei analog (14) 20 mgkg^−1 was intraperitoneally injected to MRSA-infected mice; amikacin (15 mgkg^−1), teicoplanin (1) (30 mgkg^−1), kanamycin (30 mgkg^−1) or r1,Me2-r6,guanidino-C8 analog (24) (30 mgkg^−1) was intraperitoneally injected to AB-infected mice. To assess bacteraemia, the test animals were sacrificed to collect 1 mL of peritoneal fluid (PF) for MRSA counting or the lungs were lavaged to collect 0.6 mL bronchoalveolar lavage (BAL) fluid for A. baumannii counting.
For AB (ATCC 19606), female C57BL/6 mice were first anesthetized by intraperitoneal injection of zoletil and then intranasally inoculated with 50 μL of bacteria in a PBS solution (about 10^7-10^8 CFUmL^−1). The treatment started 1 hour post-infection with a single dose of compound 24 (30 mgkg^−1), compound 1 (30 mgkg^−1), amikacin (15 mgkg^−1), or kanamycin (30 mgkg^−1), where saline/compound 1 and amikacin/kanamycin respectively served as negative and positive controls. To assess the density of bacteraemia, the lungs of mice were lavaged to collect 0.6 mL bronchoalveolar lavage (BAL) fluid from each mouse at 24 hours post-inoculation. For saline/compound 1 treated controls, the bacterial load was counted (about 4 log CFUmL^−1, FIG. 4B), where the bacterial load was reduced by 0.5 or 1 log CFUmL^−1 with the treatment of amikacin/kanamycin or compound 24, respectively.

VRE ATCC 700802 (vanB) = assay: MIC, broth microdilution; assay type: cell-based, enterococci; conditions: VRE ATCC 700802 (vanB)
Experimental: (§1) Determination of Minimal Inhibitory Concentration (MIC) for Vancomycin, Teicoplanin and Tei-Analogs Versus Selected Strains
(§2) MICs were determined by the broth microdilution method. Specifically, 12 Colonies of the test strain were picked up from 18-24 hour agar cultures and freshly inoculated into broth mediums until reaching the turbidity of a 0.5 McFarland standard. The broth culture was adjusted with broth medium to approximately 1×10^8 CFUmL^−1. […] The plates were incubated in 37° C. for 18-24 hours and monitored for the wells of the positive control, where cells grew, and the wells of the negative control, where wells should not grow. The MIC value was determined for the concentration of a test compound, at which there was no visible growth in the well.

VRE ATCC 700221 (vanA) = assay: MIC, broth microdilution; assay type: cell-based, enterococci; conditions: VRE ATCC 700221 (vanA)
Experimental: as §1, §2

VRE ATCC 700425 (vanC) = assay: MIC, broth microdilution; assay type: cell-based, enterococci; conditions: VRE ATCC 700425 (vanC)
Experimental: as §1, §2

MRSA ATCC BAA-44 = assay: MIC, broth microdilution; assay type: cell-based, Staphylococcus aureus; conditions: MRSA ATCC BAA-44
Experimental: as §1, §2

MRSA ATCC 700787 VRSA = assay: MIC, broth microdilution; assay type: cell-based, Staphylococcus aureus; conditions: MRSA ATCC 700787 VRSA
Experimental: as §1, §2

MRSA ATCC 700789 VRSA = assay: MIC, broth microdilution; assay type: cell-based, Staphylococcus aureus; conditions: MRSA ATCC 700789 VRSA
Experimental: as §1, §2

S. aureus ATCC 29213 = assay: MIC, broth microdilution; assay type: cell-based, Staphylococcus aureus; conditions: SA ATCC 29213
Experimental: as §1, §2

MRSA ATCC BAA-38 = assay: MIC, broth microdilution; assay type: cell-based, Staphylococcus aureus; conditions: MRSA ATCC BAA-38
Experimental: as §1, §2

MRSA ATCC BAA-39 = assay: MIC, broth microdilution; assay type: cell-based, Staphylococcus aureus; conditions: MRSA ATCC BAA-39
Experimental: as §1, §2

MRSA ATCC 43300 = assay: MIC, broth microdilution; assay type: cell-based, Staphylococcus aureus; conditions: MRSA ATCC 43300
Experimental: as §1, §2

MRSA ATCC 700698 hVISA = assay: MIC, broth microdilution; assay type: cell-based, Staphylococcus aureus; conditions: MRSA ATCC 700698 hVISA
Experimental: as §1, §2

A. baumannii ATCC 19606 [2] = assay: MIC, broth microdilution; assay type: cell-based, Acinetobacter baumannii
Experimental: as §1, §2

E. faecalis ATCC 29302 = assay: MIC, broth microdilution; assay type: cell-based; conditions: EF ATCC 29302
Experimental: as §1, §2

Chain of Dbv27 (Q7WZ64 entry or part of it): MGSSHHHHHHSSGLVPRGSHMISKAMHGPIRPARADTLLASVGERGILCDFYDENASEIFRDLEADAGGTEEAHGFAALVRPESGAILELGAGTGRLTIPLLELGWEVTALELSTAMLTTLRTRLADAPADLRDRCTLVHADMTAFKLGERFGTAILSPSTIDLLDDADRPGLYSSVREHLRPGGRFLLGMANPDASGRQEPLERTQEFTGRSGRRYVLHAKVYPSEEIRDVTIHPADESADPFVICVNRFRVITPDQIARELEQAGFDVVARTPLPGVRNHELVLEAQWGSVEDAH

SMILES | Kd (Dbv27) [µM] | bacterial load reduced by (A. baumannii ATCC 19606 [1]) [log CFUmL^−1] | MIC (VRE ATCC 700802 (vanB)) [µg/mL] | MIC (VRE ATCC 700221 (vanA)) [µg/mL] | MIC (VRE ATCC 700425 (vanC)) [µg/mL] | MIC (MRSA ATCC BAA-44) [µg/mL] | MIC (MRSA ATCC 700787 VRSA) [µg/mL] | MIC (MRSA ATCC 700789 VRSA) [µg/mL] | MIC (S. aureus ATCC 29213) [µg/mL] | MIC (MRSA ATCC BAA-38) [µg/mL] | MIC (MRSA ATCC BAA-39) [µg/mL] | MIC (MRSA ATCC 43300) [µg/mL] | MIC (MRSA ATCC 700698 hVISA) [µg/mL] | MIC (A. baumannii ATCC 19606 [2]; A. baumannii ATCC 19606, Table 3, first figure of cell) [µM] | MIC (A. baumannii ATCC 19606 [2]; A. baumannii ATCC 19606, Table 3, second figure of cell) [µg/mL] | MIC (E. faecalis ATCC 29302) [µg/mL]
C[S+](CC[C@H](N)C(=O)[O-])C[C@H]1O[C@@H](n2cnc3c(N)ncnc32)[C@H](O)[C@@H]1O (stereo partly shown) [SAM, S-adenosylmethionine, reference compound] | 10 | – | – | – | – | – | – | – | – | – | – | – | – | – | – | –
NCC[C@H](O)C(=O)N[C@@H]1C[C@H](N)[C@@H](O[C@H]2O[C@H](CN)[C@@H](O)[C@H](O)[C@H]2O)[C@H](O)[C@H]1O[C@H]1O[C@H](CO)[C@@H](O)[C@H](N)[C@H]1O [amikacin] | – | 0.5 | – | – | – | – | – | – | – | – | – | – | – | – | – | –
CC(=O)N[C@H]1[C@H](O[C@@H]2c3ccc(c(Cl)c3)Oc3cc4cc(c3O)Oc3ccc(cc3Cl)C[C@H]3NC(=O)[C@H](N(C)C)c5ccc(O)c(c5)Oc5cc(O)cc(c5)[C@H](NC3=O)C(=O)N[C@H]4C(=O)N[C@H]3C(=O)N[C@@H]2C(=O)N[C@H](C(=O)O)c2cc(O)cc(O)c2-c2cc3ccc2O)O[C@H](CO)[C@@H](O)[C@@H]1O [Compound 10, r1,Me2-6,GlcNAc Tei-pseudoaglycone] | – | – | 4 (≈ 2.8 µM) | >128 | 4 (≈ 2.8 µM) | 0.125 (≈ 0.0874 µM) | 0.5 (≈ 0.35 µM) | 2 (≈ 1.4 µM) | 0.25 (≈ 0.175 µM) | 0.25 (≈ 0.175 µM) | 0.125 (≈ 0.0874 µM) | 0.25 (≈ 0.175 µM) | 1 (≈ 0.699 µM) | > 200 | > 285.67 | 2 (≈ 1.4 µM)
N[C@H]1C(=O)N[C@@H]2Cc3ccc(c(Cl)c3)Oc3cc4cc(c3O)Oc3ccc(cc3Cl)[C@@H](O[C@@H]3O[C@H](CO)[C@@H](O)[C@H](O)[C@H]3NC(=O)CCCCCCCCCCCO)[C@@H]3NC(=O)[C@H](NC(=O)[C@@H]4NC(=O)[C@@H](NC2=O)c2cc(O)cc(c2)Oc2cc1ccc2O)c1ccc(O)c(c1)-c1c(O)cc(O)cc1[C@@H](C(=O)O)NC3=O [Compound 19] | – | – | 0.5 (≈ 0.321 µM) | >16 | 1 (≈ 0.642 µM) | 0.016 (≈ 0.0103 µM) | 0.016 (≈ 0.0103 µM) | 0.25 (≈ 0.16 µM) | 0.016 (≈ 0.0103 µM) | 0.031 (≈ 0.0199 µM) | 0.016 (≈ 0.0103 µM) | 0.063 (≈ 0.0404 µM) | 0.016 (≈ 0.0103 µM) | – | – | 0.25 (≈ 0.16 µM)
